# Legend:
# [1] = test system: preneoplastic lesions in rat liver; assay: Resistant hepatocyte model, adenosine aspartate given after cancer induction, sacrifice at month 12 (Example 1); format: in vivo
# Experimental: (§1) For the experimental phase in its first stage, male rats of the Fisher 344 strain were used, having 180 to 200 grams body weight, which were bred and kept in an Animal Breeding and Experimentation Unit of the Advanced Research and Studies Center, in a controlled environment with 12-hour cycles of light/darkness at a temperature of 23° C., in hygiene conditions and with free access to food and water. The preneoplastic lesion outgrowth in the liver was induced to the rats by using the resistant hepatocyte model (Semple-Roberts E, Hayes M A, Armstrong D, Becker R A, Racz W J, and Farber E. (1987) Alternative methods of selecting rat hepatocellular nodules resistant to 2-acetylaminofluorence. Int, J. Cancer. 40:643-6451) modified by our research group (Carrasc-Legleu C E, Marquez-Rosado L, Fattel-Fazenda S, Arce-PopocaE, Pérez-Carreón JI, VIIIa-Treviño S. (2004) Chemoprotective effect of caffeic acid phenethyl ester on promotion in a medium-term rat hepatocarcinogenesis assay. Int J. Cancer. 108:488-92).
# As can be observed in this figure, this second experiment (IFC) consisted first in administering by intraperitoneal route, one single dose of 200 mg/kg of weight of DEN as carcinogen primer. Additionally, on days 7, 8, and 9 after the beginning, a dose of 20 mg/kg of weight of 2AAF was administered as carcinogen promoter, and on day 10 after the beginning, rats underwent an HP. […]
# [2] = test system: cirrhosis of the liver; conditions: cited from earlier work
# [3] = test system: preneoplastic lesions in rat liver; assay: Resistant hepatocyte model, 25 days, histochemical GGT staining of liver sections (Example 2); format: in vivo
# Experimental: as §1
# On days 7, 8, and 9 after the beginning, a dose of 20 mg/kg of weight of 2-acetylaminofluorene (hereinafter called as 2AAF) was administered as carcinogen promoter, and on day 10 after the beginning, rats underwent a partial hepatectomy (HP) of 70% of hepatic mass (the administration of these products along with the hepatectomy is taken into consideration as the entire treatment for this experiment). Lastly, the rats were sacrificed at day 25.
# In order to show the beneficial effect of adenosine aspartate in preneoplastic lesions, 6 different experimental groups were designed, as shown in FIG. 2.
# The first group (TC), having 8 rats, was administered with the entire treatment; this group was used as positive control of the preneoplastic lesion outgrowth. The second group (IFC-1), having 8 animals, was administered with a pharmacologically effective dose of adenosine aspartate, which for this case, was 50 mg/kg of body weight dissolved in a physiological saline solution, pH 7.4 with 0.5% carboxymethyl-cellulose, replacing DEN carcinogen primer. The third group (IFC-P), having 8 animals, was administered with a pharmacologically effective dose of adenosine aspartate, which for this case, was 50 mg/kg of body weight dissolved in a physiological saline solution, pH 7.4 with 0.5% carboxymethyl-cellulose, replacing 2-AAF carcinogen promoter. In the fourth group (IFC-IP), with 7 animals, both the DEN carcinogen primer and the 2AAF carcinogen promoter were substituted by adenosine aspartate in pharmacologically effective doses, which in this case, was 50 mg/kg of body weight dissolved in a physiological saline solution, pH 7.4 with 0.5% carboxymethyl-cellulose. The fifth group (C-2AAF), having 6 animals, was administered with 2AAF only, being used as control of the administration of adenosine aspartate at the beginning of the second group (IFC-I. Finally, the sixth group(C-DEN), having 7 animals, which received DEN product only, was used as control of the administration of adenosine aspartate in the promotion of group 3 (IFC-P).
# When ending the cycle, all groups underwent a partial hepatectomy. […] 17(8):517-526.) Briefly, sections were set in absolute ethanol for 10 min at −20° C.; subsequently, they were treated with a solution that contains 125 μg/ml of γ-glutamil-4-methoxi-2-naphthylamide (GMNA), 0.5 mg/ml of glycyl-glycine and 0.5 mg/ml of Fast Blue in 100 mM of Tris base and they were incubated for 30 minutes at room temperature; finally, they were washed with saline solution, the precipitated were set with 100 mM cupric sulfate solution. All reagents acquired from Sigma Chemical Co. in St Louis, Mo., USA. The enzyme activity was expressed in areas stained with dark red color. […]
# [4] = test system: alpha-fetoprotein; conditions: cirrhotic patients with slightly high levels; cited from earlier work
# [5] = group IFC-I: adenosine aspartate 50 mg/kg as primer replacing DEN, day 25
# [6] = group IFC-IP: adenosine aspartate 50 mg/kg as primer and promoter replacing DEN and 2AAF, day 25
# [7] = group IFC-P: adenosine aspartate 50 mg/kg as promoter replacing 2AAF, day 25
substance,measurement,setting,value
adenosine aspartate,effect on already installed preneoplastic lesions,[1]; 60 mg/kg every 3 days from month 8 until month 12,reversal effect
same,alterations of cancer or preneoplastic lesions,"[1]; administered after a product used to induce cancer, 60 mg/kg every 3 days from month 8",no suggestive alterations of cancer or preneoplastic lesions were present
same,accumulation of collagen,[2],reducing the accumulation of collagen
same,effect over the preneoplastic lesion outgrowth compared with respective control groups,"[3]; as primer (IFC-I) or as promoter (IFC-P), vs C-2AAF and C-DEN",no effect
same,average of positive GGT foci/cm^2 regarding the control group with the entire treatment (TC = 100%),[3]; [5],1.3%
same,positive GGT area regarding the control group with the entire treatment (TC = 100%),[3]; [5],0.4%
same,positive GGT arborescences in liver,[3]; group IFC-I: as primer,some livers presented positive GGT arborescences
same,number of positive GGT foci/cm^2 regarding the control group with the entire treatment (TC = 100%),[3]; [6],0.2%
same,positive GGT area regarding the control group with the entire treatment (TC = 100%),[3]; [6],0.08%
same,development of preneoplastic lesions,[3]; group IFC-IP: as primer and as promoter,no preneoplastic lesions were developed
same,average of positive GGT foci/cm^2 regarding the control group with the entire treatment (TC = 100%),[3]; [7],7.1%
same,positive GGT area regarding the control group with the entire treatment (TC = 100%),[3]; [7],4.6%
same,positive GGT arborescences and preneoplastic lesions in liver,[3]; group IFC-P: as promoter,positive GGT arborescences were not observed but small preneoplastic lesions were observed
same,alterations (number and area) compared with control groups C-2AAF and C-DEN,[3]; groups IFC-I and IFC-P,lower in number as well as in area
same,serum levels of alpha-fetoprotein,[4],reduces serum levels of alpha-fetoprotein

# From patent publication US8507459B2, “Use of adenosine aspartate for the preparation of pharmaceutical products for the treatment of liver cancer” (Universidad Nacional Autonnoma de Mexico, priority 2007, dated 2013)
